Assays:
Assay type in all cases: functional
[1] = species on record: Mus musculus; experiment: Tested for antagonism of nicotine-induced death (D) in mice
[2] = species on record: Mus musculus; experiment: Tested for stereotyped gnawing and licking behavior of mice pretreated with apomorphine (AG)
[3] = species on record: Mus musculus; experiment: Tested for potentiation of gamma-butyrolactone induced sleep (gamma-B) in mice
[4] = species on record: Mus musculus; experiment: Tested for antagonism of oxotremorine hypothermia (OX) in mice
[5] = species on record: Mus musculus; experiment: Prolongation of hypoxic survival time (HS) in mice
[6] = species on record: Mus musculus; experiment: Tested for antagonism of pentylenetetrazole-induced clonic convulsions (P) in mice
[7] = species on record: Mus musculus; experiment: Tested for antagonism of nicotine-induced tonic extensor convulsions (TE) in mice
[8] = species on record: Mus musculus; experiment: Tested for potentiation of yohimbine toxicity in aggregated mice(Y)
[9] = species on record: Mus musculus; experiment: Tested for antagonism of bicuculline-induced tonic-extensor convulsions (B) in mice

| Structure (SMILES) | ED50 [1] | ED50 [2] | ED50 [3] | ED50 [4] | ED50 [5] | ED50 [6] | ED50 [7] | ED50 [8] | ED50 [9] |
| --- | --- | --- | --- | --- | --- | --- | --- | --- | --- |
| CN(C)Cc1nnc2n1-c1ccccc1C(c1ccccc1)=NC2 | 2.8 mg/kg | 3.1 mg/kg | 6.2 mg/kg | 12.5 mg/kg | > 50 mg/kg | 6.2 mg/kg | 2.5 mg/kg | 35.4 mg/kg | 50 mg/kg |
| CCN(CC)CCCc1nnc2n1-c1ccc(Cl)cc1C(c1ccccc1)=NC2 | 13 mg/kg | 100 mg/kg | > 100 mg/kg | 31.6 mg/kg | > 50 mg/kg | > 100 mg/kg | 11 mg/kg | 56 mg/kg | > 100 mg/kg |
| CN(C)CCCc1nnc2n1-c1ccc(Cl)cc1C(c1ccccc1)=NC2 | 10 mg/kg | 42 mg/kg | 36.6 mg/kg | 75 mg/kg | > 50 mg/kg | 13.3 mg/kg | 10 mg/kg | > 100 mg/kg | 56 mg/kg |
| C=CCNCc1nnc2n1-c1ccc(Cl)cc1C(c1ccccc1)=NC2 | 0.28 mg/kg | > 50 mg/kg | 1.9 mg/kg | > 50 mg/kg | 6 mg/kg | 3.7 mg/kg | 0.55 mg/kg | > 50 mg/kg | 3.1 mg/kg |
| CN(Cc1nnc2n1-c1ccc(Cl)cc1C(c1ccccc1)=NC2)C1CC1 | 0.28 mg/kg | > 50 mg/kg | 1.9 mg/kg | > 50 mg/kg | 6 mg/kg | 3.7 mg/kg | 0.55 mg/kg | > 50 mg/kg | 3.1 mg/kg |
| CN(C)CCc1nnc2n1-c1ccc(Cl)cc1C(c1ccccc1Cl)=NC2 | 0.28 mg/kg | 6.3 mg/kg | 0.4 mg/kg | > 50 mg/kg | 1.3 mg/kg | 0.3 mg/kg | 0.28 mg/kg | 29.7 mg/kg | 0.5 mg/kg |
| CC(N)Cc1nnc2n1-c1ccc(Cl)cc1C(c1ccccc1)=NC2 (stereo not drawn) | 32 mg/kg | 25 mg/kg | 35 mg/kg | 4.4 mg/kg | > 50 mg/kg | > 50 mg/kg | 18 mg/kg | 21 mg/kg | > 50 mg/kg |
| C=CCN(C)Cc1nnc2n1-c1ccc(Cl)cc1C(c1ccccc1)=NC2 | 1.1 mg/kg | > 50 mg/kg | 1.6 mg/kg | > 50 mg/kg | > 50 mg/kg | 4.4 mg/kg | 1.1 mg/kg | > 50 mg/kg | 3.7 mg/kg |
| C#CCN(C)Cc1nnc2n1-c1ccc(Cl)cc1C(c1ccccc1Cl)=NC2 | 0.045 mg/kg | 21 mg/kg | 0.1 mg/kg | > 50 mg/kg | 0.4 mg/kg | 0.021 mg/kg | 0.036 mg/kg | > 50 mg/kg | 0.1 mg/kg |
| NOCc1nnc2n1-c1ccc(Cl)cc1C(c1ccccc1)=NC2 | 0.08 mg/kg | 42 mg/kg | 0.84 mg/kg | 12.5 mg/kg | 0.7 mg/kg | 0.2 mg/kg | 0.1 mg/kg | > 50 mg/kg | 0.2 mg/kg |
| CN(C)Cc1nnc2n1-c1ccc(Cl)cc1C(c1ccccc1Cl)=NC2 | 0.06 mg/kg | 17.8 mg/kg | 0.3 mg/kg | > 30 mg/kg | 0.1 mg/kg | 0.1 mg/kg | 0.06 mg/kg | > 30 mg/kg | 0.8 mg/kg |
| CN(C)CCc1nnc2n1-c1ccc(Cl)cc1C(c1ccccc1)=NC2 | 2.5 mg/kg | 28 mg/kg | 15 mg/kg | 6 mg/kg | > 20 mg/kg | 25 mg/kg | 2.8 mg/kg | 30 mg/kg | 21 mg/kg |

Source: ChEMBL document CHEMBL1121629, “1-(Aminoalkyl)-6-aryl-4-H-s-triazolo[4,3-a][1,4]benzodiazepines with antianxiety and antidepressant activity” (1980)
